Experimental data as given in paper PMC10745968 (Molecules, 2023).

Assays:
Bacillus subtilis = format: cell-based
Staphylococcus aureus = format: cell-based
Bacillus cereus = format: cell-based
Escherichia coli = format: cell-based
Salmonella typhi = format: cell-based
Pseudomonas aeruginosa = format: cell-based
brine shrimp nauplii = settings: in vivo
Aspergillus niger = format: cell-based; settings: 5 days
Aspergillus flavus = format: cell-based; settings: 5 days

Row | SMILES | Diameter of Inhibition Zone (Bacillus subtilis) | Diameter of Inhibition Zone (Staphylococcus aureus) | Diameter of Inhibition Zone (Bacillus cereus) | Diameter of Inhibition Zone (Escherichia coli) | Diameter of Inhibition Zone (Salmonella typhi) | Diameter of Inhibition Zone (Pseudomonas aeruginosa) | death rate (brine shrimp) (brine shrimp nauplii) | % Inhibition of Fungal Mycelial Growth in mm (20 μg/μL) (Aspergillus niger) | % Inhibition of Fungal Mycelial Growth in mm (20 μg/μL) (Aspergillus flavus)
1 | CC[C@H]1OC(=O)[C@H](C)[C@@H](O[C@H]2C[C@@](C)(OC)[C@@H](O)[C@H](C)O2)[C@H](C)[C@@H](O[C@@H]2O[C@H](C)C[C@H](N(C)C)[C@H]2O)[C@](C)(O)C[C@@H](C)CN(C)[C@H](C)[C@@H](O)[C@]1(C)O [Azithromycin, reference compound] | ** 18.5 ± 0.3 mm | ** 17.75 ± 0.3 mm | ** 17.22 ± 0.3 mm | ** 17.25 ± 0.1 mm | ** 18.0 ± 0.2 mm | ** 18.5 ± 0.3 mm | – | – | –
2 | CO[C@H]1O[C@H](COC(=O)C=Cc2ccccc2)[C@@H](O)[C@H](O)[C@@H]1O [Compound 2, Methyl 6-O-cinnamoyl-α-D-mannopyranoside] | – | 11.75 ± 0.3 mm | 07.11 ± 0.5 mm | – | 12.41 ± 0.3 mm | – | 27.07% | – | –
3 | CCCCCCC(=O)O[C@@H]1[C@H](OC(=O)CCCCCC)[C@@H](OC)O[C@H](COC(=O)C=Cc2ccccc2)[C@H]1OC(=O)CCCCCC [Compound 3, Methyl 2,3,4-tri-O-heptanoyl-6-O-cinnamoyl-α-D-mannopyranoside] | – | – | – | 10.25 ± 0.2 mm | – | – | – | – | –
4 | CCCCCCCC(=O)O[C@@H]1[C@H](OC(=O)CCCCCCC)[C@@H](OC)O[C@H](COC(=O)C=Cc2ccccc2)[C@H]1OC(=O)CCCCCCC [Compound 4, Methyl 6-O-cinnamoyl-2,3,4-tri-O-octanoyl-α-D-mannopyranoside] | 10.51 ± 0.6 mm | – | – | 11.53 ± 0.2 mm | 10.23 ± 0.5 mm | 09.19 ± 0.6 mm | 36.10-37.03% | * 96.22 ± 1.1% | * 98.47 ± 1.0%
5 | CO[C@H]1O[C@H](COC(=O)/C=C/c2ccccc2)[C@@H](OS(=O)(=O)c2ccc(C)cc2)[C@H](OS(=O)(=O)c2ccc(C)cc2)[C@@H]1OS(=O)(=O)c1ccc(C)cc1 [Compound 5, Methyl 2,3,4-tri-O-p-toluenesulfonyl-6-O-cinnamoyl-α-D-mannopyranoside] | 12.15 ± 0.7 mm | – | 08.10 ± 0.3 mm | 9.00 ± 0.2 mm | – | 12.36 ± 0.2 mm | – | 57.62 ± 1.1% | * 81.30 ± 1.0%
6 | CO[C@H]1O[C@H](COC(=O)C=Cc2ccccc2)[C@@H](OS(=O)(=O)c2ccccc2)[C@H](OS(=O)(=O)c2ccccc2)[C@@H]1OS(=O)(=O)c1ccccc1 [Compound 6, Methyl 6-O-cinnamoyl-2,3,4-tri-O-benzenesulfonyl-α-D-mannopyranoside] | 10.13 ± 0.8 mm | – | – | 9.00 ± 0.3 mm | 9.17 ± 0.1 mm | 8.50 ± 0.2 mm | 36.10-37.03% | – | –
7 | C[C@@H]1[C@H](O)[C@@H](C)/C=C/C=C/CC/C=C/C=C/C=C/C=C/C(O[C@H]2O[C@H](C)[C@@H](O)[C@H](N)[C@@H]2O)CC2O[C@](O)(CC(O)C(O)CCC(O)CC(O)CC(O)CC(=O)O[C@H]1C)CC(O)C2C(=O)O (stereo partly shown) [Nystatin, nystatin, reference compound] | – | – | – | – | – | – | – | ** 65.4 ± 1.0% | ** 64.1 ± 1.0%
